Values quoted from earlier work as cited in patent EP3156049A1, “PHARMACEUTICAL COMPOSITION OF PRASUGREL” (Alembic Pharmaceuticals Limited, priority 2015, dated 2017).
Where two headings read alike, the source gives them in different places.

Solubility (pH 2): soluble
Solubility (pH 3 to 4): slightly soluble
Solubility (pH 6 to 7.5): practically insoluble
Structure (SMILES): CC(=O)Oc1cc2c(s1)CCN(C(C(=O)C1CC1)c1ccccc1F)C2.Cl (racemic) [Prasugrel hydrochloride, 5-[(1RS)-2-cyclopropyl-1-(2-fluorophenyl)-2-oxoethyl]-4,5,6,7-tetrahydrothieno [3,2-c] pyridin-2-yl acetate hydrochloride]
